Laboratory results: PubChem BioAssay (NCI)
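Dose response: 5 concentrations. Exposure: 48 h. Format: 96-well plates. Endpoint: linear interpolation; highest concentration if not reached. TGI: concentration producing complete growth inhibition.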

Columns and labels:
Assay in all cases: DTP human tumour cell line panel, 48 h
OVCAR-3 ovarian = system: OVCAR-3 ovarian
SNB-19 CNS = system: SNB-19 CNS
OVCAR-4 ovarian = system: OVCAR-4 ovarian
HOP-62 NSCLC = system: HOP-62 NSCLC
UO-31 renal = system: UO-31 renal
HCT-15 colon = system: HCT-15 colon
U251 CNS = system: U251 CNS
SK-MEL-2 melanoma = system: SK-MEL-2 melanoma
TK-10 renal = system: TK-10 renal
COLO 205 colon = system: COLO 205 colon
SNB-75 CNS = system: SNB-75 CNS
MDA-MB-435 = system: MDA-MB-435
CCRF-CEM leukemia = system: CCRF-CEM leukemia
K-562 leukemia = system: K-562 leukemia
OVCAR-5 ovarian = system: OVCAR-5 ovarian
A549 NSCLC = system: A549 NSCLC
NCI-H23 lung = system: NCI-H23 lung
HT29 colon = system: HT29 colon
NCI/ADR-RES ovarian = system: NCI/ADR-RES ovarian
A498 renal = system: A498 renal
CAKI-1 renal = system: CAKI-1 renal
M14 melanoma = system: M14 melanoma
SF-539 CNS = system: SF-539 CNS
SR leukemia = system: SR leukemia
786-0 renal = system: 786-0 renal
NCI-H460 lung = system: NCI-H460 lung
T-47D breast = system: T-47D breast
SK-MEL-5 melanoma = system: SK-MEL-5 melanoma
IGROV1 ovarian = system: IGROV1 ovarian
MOLT-4 leukemia = system: MOLT-4 leukemia
PC-3 prostate = system: PC-3 prostate
HL-60(TB) leukemia = system: HL-60(TB) leukemia
LOX IMVI melanoma = system: LOX IMVI melanoma
ACHN renal = system: ACHN renal
SN12C renal = system: SN12C renal
MALME-3M melanoma = system: MALME-3M melanoma
HCT-116 colon = system: HCT-116 colon
MDA-MB-231 breast = system: MDA-MB-231 breast
HOP-92 NSCLC = system: HOP-92 NSCLC
MDA-N = system: MDA-N
KM12 colon = system: KM12 colon
HS 578T breast = system: HS 578T breast
UACC-257 melanoma = system: UACC-257 melanoma
SK-OV-3 ovarian = system: SK-OV-3 ovarian
SF-295 CNS = system: SF-295 CNS
SF-268 CNS = system: SF-268 CNS
RPMI-8226 leukemia = system: RPMI-8226 leukemia
SW-620 colon = system: SW-620 colon
MCF7 breast = system: MCF7 breast
UACC-62 melanoma = system: UACC-62 melanoma
SK-MEL-28 melanoma = system: SK-MEL-28 melanoma
RXF 393 renal = system: RXF 393 renal
DU-145 prostate = system: DU-145 prostate
BT-549 breast = system: BT-549 breast
OVCAR-8 ovarian = system: OVCAR-8 ovarian
NCI-H226 lung = system: NCI-H226 lung
EKVX NSCLC = system: EKVX NSCLC
NCI-H522 lung = system: NCI-H522 lung
HCC-2998 colon = system: HCC-2998 colon

Cc1c(N=Nc2ccc(Cl)cc2)c(-c2ccccc2)n(C2OC(CO)C(O)C(O)C2O)c(=S)c1C#N (stereo unspecified) showed a TGI (OVCAR-3 ovarian) of 32.5 µM, a TGI (SNB-19 CNS) of 25.2 µM and a TGI (OVCAR-4 ovarian) of 36 µM. It also gave a TGI (HOP-62 NSCLC) of 34.4 µM, a TGI (UO-31 renal) of 34.2 µM and a TGI (HCT-15 colon) of 33.9 µM. It also gave a TGI (U251 CNS) of 25.3 µM, a TGI (SK-MEL-2 melanoma) of 37.5 µM and a TGI (TK-10 renal) of 44.4 µM. The TGI (COLO 205 colon) was 37.7 µM, the TGI (SNB-75 CNS) was 32.7 µM and the TGI (MDA-MB-435) was 22.2 µM. For the same compound, the TGI (CCRF-CEM leukemia) was 87.5 µM, the TGI (K-562 leukemia) was 41.3 µM and the TGI (OVCAR-5 ovarian) was 33.7 µM. The TGI (A549 NSCLC) was 35.3 µM, the TGI (NCI-H23 lung) was 22.5 µM and the TGI (HT29 colon) was 33.7 µM. The TGI (NCI/ADR-RES ovarian) was 32.8 µM, the TGI (A498 renal) was 21.5 µM and the TGI (CAKI-1 renal) was 34 µM. It also gave a TGI (M14 melanoma) of 31.2 µM, a TGI (SF-539 CNS) of 41 µM and a TGI (SR leukemia) greater than 100 µM. For the same compound, the TGI (786-0 renal) was 36.7 µM, the TGI (NCI-H460 lung) was 51.7 µM and the TGI (T-47D breast) was 44.2 µM. The TGI (SK-MEL-5 melanoma) was 25.8 µM, the TGI (IGROV1 ovarian) was 29.5 µM and the TGI (MOLT-4 leukemia) was 33.2 µM. The TGI (PC-3 prostate) was 22.4 µM, the TGI (HL-60(TB) leukemia) was greater than 100 µM and the TGI (LOX IMVI melanoma) was 32.7 µM. The TGI (ACHN renal) was 31.1 µM, the TGI (SN12C renal) was 32.5 µM and the TGI (MALME-3M melanoma) was 46.4 µM. For the same compound, the TGI (HCT-116 colon) was 28.2 µM, the TGI (MDA-MB-231 breast) was 39.2 µM and the TGI (HOP-92 NSCLC) was 28.8 µM. It also gave a TGI (MDA-N) of 35.9 µM, a TGI (KM12 colon) of 35.4 µM and a TGI (HS 578T breast) of 51.6 µM. It also gave a TGI (UACC-257 melanoma) of 54 µM, a TGI (SK-OV-3 ovarian) of 30.6 µM and a TGI (SF-295 CNS) of 73.9 µM. For the same compound, the TGI (SF-268 CNS) was 44.8 µM, the TGI (RPMI-8226 leukemia) was greater than 100 µM and the TGI (SW-620 colon) was 32.9 µM. The TGI (MCF7 breast) was 34.5 µM, the TGI (UACC-62 melanoma) was 26.1 µM and the TGI (SK-MEL-28 melanoma) was 28.7 µM. The TGI (RXF 393 renal) was 28.7 µM, the TGI (DU-145 prostate) was 39.4 µM and the TGI (BT-549 breast) was 29.5 µM.
CC(C)=CC[C@]12CCN[C@H]1N(S(=O)(=O)c1ccccc1)c1ccccc12 showed a TGI (OVCAR-3 ovarian) of 30.6 µM, a TGI (SNB-19 CNS) of 51.2 µM and a TGI (OVCAR-4 ovarian) of 42 µM. It also gave a TGI (HOP-62 NSCLC) of 29.1 µM, a TGI (UO-31 renal) of 33.3 µM and a TGI (HCT-15 colon) of 32.8 µM. The TGI (U251 CNS) was 30.7 µM, the TGI (SK-MEL-2 melanoma) was 31.6 µM and the TGI (TK-10 renal) was greater than 100 µM. It also gave a TGI (COLO 205 colon) of 41 µM, a TGI (SNB-75 CNS) of 44.5 µM and a TGI (OVCAR-8 ovarian) of 33.9 µM. For the same compound, the TGI (MDA-MB-435) was 32.5 µM, the TGI (CCRF-CEM leukemia) was greater than 100 µM and the TGI (K-562 leukemia) was 56.9 µM. For the same compound, the TGI (OVCAR-5 ovarian) was greater than 100 µM, the TGI (A549 NSCLC) was 59.1 µM and the TGI (NCI-H23 lung) was greater than 100 µM. For the same compound, the TGI (HT29 colon) was 39 µM, the TGI (NCI/ADR-RES ovarian) was 30.5 µM and the TGI (CAKI-1 renal) was 69.4 µM. It also gave a TGI (NCI-H226 lung) of 36.7 µM, a TGI (SF-539 CNS) of 36.9 µM and a TGI (SR leukemia) of 51 µM. For the same compound, the TGI (786-0 renal) was 32.2 µM, the TGI (NCI-H460 lung) was 29 µM and the TGI (T-47D breast) was 92.9 µM. The TGI (SK-MEL-5 melanoma) was 28.1 µM, the TGI (IGROV1 ovarian) was 30.8 µM and the TGI (MOLT-4 leukemia) was 75.8 µM. The TGI (EKVX NSCLC) was 21.3 µM, the TGI (PC-3 prostate) was 27.4 µM and the TGI (HL-60(TB) leukemia) was 45.6 µM. For the same compound, the TGI (LOX IMVI melanoma) was 31.2 µM, the TGI (ACHN renal) was 50.7 µM and the TGI (SN12C renal) was 26.4 µM. For the same compound, the TGI (MALME-3M melanoma) was 32.7 µM, the TGI (HCT-116 colon) was 27.9 µM and the TGI (MDA-MB-231 breast) was 58.5 µM. It also gave a TGI (HOP-92 NSCLC) of 28.3 µM, a TGI (MDA-N) of 29.1 µM and a TGI (KM12 colon) of 76.3 µM. It also gave a TGI (HS 578T breast) of 44.5 µM, a TGI (UACC-257 melanoma) of 34.8 µM and a TGI (SK-OV-3 ovarian) of 38.9 µM. The TGI (SF-295 CNS) was 34.5 µM, the TGI (SF-268 CNS) was 33.3 µM and the TGI (NCI-H522 lung) was 30.1 µM. The TGI (RPMI-8226 leukemia) was 45.9 µM, the TGI (SW-620 colon) was 36.9 µM and the TGI (MCF7 breast) was 39.8 µM. It also gave a TGI (UACC-62 melanoma) of 29.2 µM, a TGI (SK-MEL-28 melanoma) of 31.5 µM and a TGI (RXF 393 renal) of 27.6 µM. For the same compound, the TGI (HCC-2998 colon) was 32.1 µM, the TGI (DU-145 prostate) was greater than 100 µM and the TGI (BT-549 breast) was 33.7 µM.
